Source: patent EP4748837A1, “AROMATIC AMIDE DERIVATIVE, AND PREPARATION METHOD THEREFOR AND USE THEREOF” (Zhejiang Hisun Pharmaceutical Co., Ltd., priority 2023, dated 2025)
Read-outs that look alike come from different tables or passages of the source.

What was measured:
HT-29 cells = assay: Inhibition of HT-29 cell proliferation (CellTiter-Glo cell viability); assay type: cell-based; conditions: Homo sapiens
Protocol: (§1) Influences of the compounds of the present invention on HT-29 cell proliferation were determined by the following method. HT-29 cells (containing TP53 R273H mutation) were purchased from the Cell Bank of Shanghai Institute of Biochemistry and Cell Biology, Chinese Academy of Sciences, and cultured in a McCOY's 5A culture medium containing 10% fetal bovine serum, 100 U penicillin and 100 µg/mL streptomycin. A cell viability was determined by a CellTiter-Glo® Luminescent Cell Viability Assay kit (Promega, article number G7573).
(§2) An experimental method was operated according to steps in the instruction of the kit, which was briefly described as follows: a test compound was dissolved in DMSO first to prepare a 10 mM stock solution, then the stock solution was diluted with the culture medium to prepare a test sample, and a final concentration of the compound was in a range of 1000 nM-0.015 nM. Cells in a logarithmic growth phase were inoculated into a 96-well cell culture plate at a density of 1000 cells per well, cultured in a 5% CO2 incubator at 37°C overnight, and then the test compound was added to continuously culture for 120 hours. After the culture was ended, 50 uL of CellTiter-Glo detection solution was added to each well, shaken for 5 minutes, and then allowed to stand for 10 minutes, and subsequently, a luminance value of each well of the sample was read by a microplate reader in a Luminescence mode. By comparing with the numerical value of a control group (0.3% DMSO), a percentage inhibition rate of the compound at each concentration point was calculated, and then nonlinear regression analysis was carried out based on concentration logarithm-inhibition rate of the compound in GraphPad Prism 5 software, so as to obtain an IC50 value of the compound for inhibiting the cell proliferation, which was as shown in Table 2. Table 2 IC50 data of the compounds of the present invention for inhibiting HT-29 cell proliferation

recombinant human KIF18A = molecular target: T1, recombinant human KIF18A (Homo sapiens, UniProt Q8NI77); assay: Inhibition of KIF18A enzyme activity (ADP-Glo assay); assay type: biochemical; conditions: recombinant human KIF18A 100 nM, ATP 60 µM, tubulin, paclitaxel
T1 construct: purchased GenScript
Protocol: Inhibition degrees of the compounds of the present invention on recombinant human KIF18A enzyme activity in vitro were determined by the following method. An ADP-Glo™ Kinase Assay kit (article number V9102) from Promega Company was used in this method. Detailed experimental operation referred to the instruction of the kit.
An experimental process was briefly described as follows: a test compound was dissolved in DMSO first to prepare a stock solution, then the stock solution was gradiently diluted with a reaction buffer A ([…], 0.01% Pluronic F-68), and a final concentration of the test compound in the reaction system was in a range of 10000 nM-0.15 nM; and a KIF18A protein and ATP working solution was prepared by using a reaction buffer B (15 mM Tris, pH 7.5, 10 mM MgCl2, 0.01% Pluronic F-68, 37.5 µg/ml tubulin, 1.25 µM paclitaxel). The reaction was carried out in a 384-well microplate. The test compound and the recombinant human KIF18A protein (final concentration of 100 nM, entrusted to GenScript for expression) were added into the wells and incubated at room temperature for 20 minutes, and subsequently, an ATP solution (component V915A from the ADP-Glo™ Kinase Assay kit, final concentration of 60 µM) was added to the reaction solution and the system was incubated at room temperature for 20 minutes. Subsequently, 5 µL of ADP-Glo Reagent was added to the reaction systemand the system was incubated at room temperature for 50 minutes. Then, 10 µL of Kinase Detection Reagent was added to the reaction system and the system was incubated at room temperature for 30 minutes. After the incubation was ended, a chemiluminiscence intensity value of each well was determined by a microplate reader in a Luminescence mode.

OVCAR-3 cells = assay: Inhibition of OVCAR-3 cell proliferation (CellTiter-Glo cell viability); assay type: cell-based; conditions: Homo sapiens
Protocol: as §1, with “OVCAR-3” for “HT-29”, “R248Q” for “R273H”, “an RPMI 1640” for “a McCOY's 5A”
as §2, with “for 72” for “for 120”, “each well ,” for “each well,”, “Table 1.” for “Table 2.”, “Table 1” for “Table 2”, “inhibiting OVCAR-3” for “inhibiting HT-29”

[1] = HT-29 cells (TP53 R273H mutation), 120 hours culture with compound, read-out: IC50
[2] = OVCAR-3 cells (TP53 R248Q mutation), 72 hours culture with compound, read-out: IC50

T1 sequence (Q8NI77 whole entry): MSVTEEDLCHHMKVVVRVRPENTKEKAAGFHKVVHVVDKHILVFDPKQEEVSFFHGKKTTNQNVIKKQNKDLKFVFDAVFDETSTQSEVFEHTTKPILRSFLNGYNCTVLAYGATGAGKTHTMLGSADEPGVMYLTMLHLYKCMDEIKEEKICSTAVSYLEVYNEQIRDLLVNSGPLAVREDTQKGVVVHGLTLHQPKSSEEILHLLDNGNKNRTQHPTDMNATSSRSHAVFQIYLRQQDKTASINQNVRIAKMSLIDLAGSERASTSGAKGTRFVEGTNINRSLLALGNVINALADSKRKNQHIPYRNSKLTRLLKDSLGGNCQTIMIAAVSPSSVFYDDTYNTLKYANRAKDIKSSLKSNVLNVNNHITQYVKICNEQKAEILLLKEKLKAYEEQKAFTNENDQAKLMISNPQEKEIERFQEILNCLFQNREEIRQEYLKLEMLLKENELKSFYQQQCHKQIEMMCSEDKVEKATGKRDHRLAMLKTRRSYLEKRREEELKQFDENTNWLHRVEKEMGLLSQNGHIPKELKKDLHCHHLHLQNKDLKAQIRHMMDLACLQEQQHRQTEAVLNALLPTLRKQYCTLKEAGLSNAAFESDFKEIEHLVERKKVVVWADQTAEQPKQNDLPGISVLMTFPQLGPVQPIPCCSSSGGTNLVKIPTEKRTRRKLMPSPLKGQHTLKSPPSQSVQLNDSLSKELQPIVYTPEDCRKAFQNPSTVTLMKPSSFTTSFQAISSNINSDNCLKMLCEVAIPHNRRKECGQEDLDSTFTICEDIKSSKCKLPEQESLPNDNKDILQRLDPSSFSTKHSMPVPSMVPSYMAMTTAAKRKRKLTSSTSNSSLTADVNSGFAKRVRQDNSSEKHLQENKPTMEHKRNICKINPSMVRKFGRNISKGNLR
T1 sequence (P68363 whole entry partner): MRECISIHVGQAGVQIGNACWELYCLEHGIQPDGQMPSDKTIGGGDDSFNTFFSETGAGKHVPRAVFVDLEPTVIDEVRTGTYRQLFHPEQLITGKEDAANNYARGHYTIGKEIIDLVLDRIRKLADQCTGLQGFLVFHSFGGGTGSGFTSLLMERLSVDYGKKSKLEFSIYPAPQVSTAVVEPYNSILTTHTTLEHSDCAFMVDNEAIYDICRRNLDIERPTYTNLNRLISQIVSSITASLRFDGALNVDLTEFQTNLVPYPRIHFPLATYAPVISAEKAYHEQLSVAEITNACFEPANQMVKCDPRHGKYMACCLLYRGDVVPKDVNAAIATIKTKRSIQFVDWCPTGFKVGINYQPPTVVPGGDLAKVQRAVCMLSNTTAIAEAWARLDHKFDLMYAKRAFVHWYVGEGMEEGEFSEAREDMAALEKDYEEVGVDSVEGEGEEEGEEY
T1 sequence (Q9BVA1 whole entry partner): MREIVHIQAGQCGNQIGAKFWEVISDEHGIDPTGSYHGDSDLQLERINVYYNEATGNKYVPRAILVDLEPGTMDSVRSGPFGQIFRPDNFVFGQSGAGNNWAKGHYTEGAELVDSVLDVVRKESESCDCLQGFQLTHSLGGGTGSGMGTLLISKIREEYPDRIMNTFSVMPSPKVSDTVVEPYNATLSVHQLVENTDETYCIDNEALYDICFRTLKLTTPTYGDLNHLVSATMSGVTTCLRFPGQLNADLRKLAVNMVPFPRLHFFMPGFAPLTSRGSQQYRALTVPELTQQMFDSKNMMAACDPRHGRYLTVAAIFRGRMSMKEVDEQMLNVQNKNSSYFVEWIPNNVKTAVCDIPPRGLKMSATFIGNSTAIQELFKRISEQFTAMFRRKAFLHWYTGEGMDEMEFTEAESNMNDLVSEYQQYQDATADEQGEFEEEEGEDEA

SMILES	IC50 (HT-29 cells; [1])	IC50 (recombinant human KIF18A; read-out: IC50)	IC50 (OVCAR-3 cells; [2])	IC50 (HT-29 cells; HT-29, 120 h)	IC50 (recombinant human KIF18A)	IC50 (OVCAR-3 cells; OVCAR-3, 72 h)
O=C(Nc1ccc(-c2ccnnc2)c(N2CCC(F)(F)CC2)c1)c1ccc(NS(=O)(=O)C2CC2)cc1N1CCC2(CC1)CC2 [Example 16, 4-(cyclopropanesulfonamido)-N-(3-(4,4-difluoropiperidin-1-yl)-4-(pyridazin-4-yl)phenyl)-2-(6-azaspiro[2.5]octan-6-yl)b enzamide]	4.6 nM	147 nM	6.2 nM	–	–	–
O=C(Nc1ccc(-c2ncccn2)c(N2CCC(F)(F)CC2)c1)c1ccc(NS(=O)(=O)C2CC2)cc1N1CCC2(CC1)CC2 [Example 17, 4-(cyclopropanesulfonamido)-N-(3-(4,4-difluoropiperidin-1-yl)-4-(pyrimidin-2-yl)phenyl)-2-(6-azaspiro[2.5]octan-6-yl)b enzamide]	3.3 nM	121 nM	3.2 nM	–	–	–
CCS(=O)(=O)Nc1ccc(C(=O)Nc2ccc(-c3ncccn3)c(N3CC(F)(F)C3)c2)c(N2CCC3(CC2)CC3)c1 [Example 18, N-(3-(3,3-difluoroazetidin-1-y 1)-4-(pyrimidin-2-yl)phenyl)-4-(ethylsulfonamido)-2-(6-azaspiro[2.5]octan-6-yl)benzamide]	0.64 nM	149 nM	6.5 nM	–	–	–
CCS(=O)(=O)Nc1ccc(C(=O)Nc2ccc(-c3ccnnc3)c(N3CC(F)(F)C3)c2)c(N2CCC3(CC2)CC3)c1 [Example 19, N-(3-(3,3-difluoroazetidin-1-y 1)-4-(pyridazin-4-yl)phenyl)-4-(ethylsulfonamido)-2-(6-azaspiro[2.5]octan-6-yl)benzamide]	0.44 nM	98.6 nM	6.3 nM	–	–	–
CCS(=O)(=O)Nc1ccc(C(=O)Nc2ccc(-n3ccnc3)c(N3CCC(F)(F)CC3)c2)c(N2CCC3(CC2)CC3)c1 [Example 20, N-(3-(4,4-difluoropiperidin-1-yl)-4-(1H-imidazol-1-yl)pheny 1)-4-(ethylsulfonamido)-2-(6-azaspiro[2.5]octan-6-yl)benzamide]	6 nM	50.8 nM	8.5 nM	–	–	–
CCS(=O)(=O)Nc1ccc(C(=O)Nc2ccc(-c3ncc[nH]3)c(N3CCC(F)(F)CC3)c2)c(N2CCC3(CC2)CC3)c1 [Example 25, N-(3-(4,4-difluoropiperidin-1-yl)-4-(1H-imidazol-2-yl)pheny 1)-4-(ethylsulfonamido)-2-(6-azaspiro[2.5]octan-6-yl)benzamide]	–	–	–	2.6 nM	33.9 nM	3.5 nM
CCS(=O)(=O)Nc1ccc(C(=O)Nc2ccc(-c3ncn(C)n3)c(OC3CC(F)(F)C3)c2)c(N2CCC3(CC2)CC3)c1 [Example 45, N-(3-(3,3-difluorocyclobutoxy)-4-(1-methyl-1H-1,2,4-triazol-3-yl)phenyl)-4-(ethylsulfonamido)-2-(6-azaspiro[2.5]octan-6-yl)benzamide]	6.2 nM	103 nM	2.5 nM	–	–	–

More lines, main results first:

IC50 (HT-29 cells; [1])	IC50 (recombinant human KIF18A; read-out: IC50)	IC50 (OVCAR-3 cells; [2])	SMILES	IC50 (HT-29 cells; HT-29, 120 h)	IC50 (recombinant human KIF18A)	IC50 (OVCAR-3 cells; OVCAR-3, 72 h)
8.4 nM	59.1 nM	12.4 nM	CCS(=O)(=O)Nc1ccc(C(=O)Nc2ccc(-n3cncn3)c(N3CCC(F)(F)CC3)c2)c(N2CCC3(CC2)CC3)c1 [Example 28, N-(3-(4,4-difluoropiperidin-1-yl)-4-(1H-1,2,4-triazol-1-yl)phenyl)-4-(ethylsulfonamido)-2-(6-azaspiro[2.5]octan-6-yl)benz amide]	–	–	–
18.4 nM	79.5 nM	15.9 nM	CCS(=O)(=O)Nc1ccc(C(=O)Nc2ccc(-n3cnnn3)c(N3CCC(F)(F)CC3)c2)c(N2CCC3(CC2)CC3)c1 [Example 29, N-(3-(4,4-difluoropiperidin-1-yl)-4-(1H-tetrazol-1-yl)phenyl)-4-(ethylsulfonamido)-2-(6-azaspiro[2.5]octan-6-yl)benzamide]	–	–	–
7.9 nM	79 nM	13.3 nM	CCS(=O)(=O)Nc1ccc(C(=O)Nc2ccc(-n3ncnn3)c(N3CCC(F)(F)CC3)c2)c(N2CCC3(CC2)CC3)c1 [Example 30, N-(3-(4,4-difluoropiperidin-1-yl)-4-(2H-tetrazol-2-yl)phenyl)-4-(ethylsulfonamido)-2-(6-azaspiro[2.5]octan-6-yl)benzamide]	–	–	–
8.3 nM	134 nM	15.9 nM	CCS(=O)(=O)Nc1ccc(C(=O)Nc2ccc(-n3ccnn3)c(C3CCC(F)(F)CC3)c2)c(N2CCC3(CC2)CC3)c1 [Example 31, N-(3-(4,4-difluorocyclohexyl)-4-(1H-1,2,3-triazol-1-yl)pheny 1)-4-(ethylsulfonamido)-2-(6-azaspiro[2.5]octan-6-yl)benzamide]	–	–	–
3.8 nM	39.8 nM	3.6 nM	CCS(=O)(=O)Nc1ccc(C(=O)Nc2ccc(-c3nnc[nH]3)c(N3CCC(F)(F)CC3)c2)c(N2CCC3(CC2)CC3)c1 [Example 37, N-(3-(4,4-difluoropiperidin-1-yl)-4-(4H-1,2,4-triazol-3-yl)phenyl)-4-(ethylsulfonamido)-2-(6-azaspiro[2.5]octan-6-yl)benz amide]	–	–	–
0.26 nM	122 nM	3.8 nM	CCS(=O)(=O)Nc1ccc(C(=O)Nc2ccc(-c3ncn(C)n3)c(N3CCC(F)(F)CC3)c2)c(N2CCC3(CC2)CC3)c1 [Example 39, N-(3-(4,4-difluoropiperidin-1-yl)-4-(1-methyl-1H-1,2,4-triazol-3-yl)phenyl)-4-(ethylsulfon amido)-2-(6-azaspiro[2.5]octan-6-yl)benzamide]	–	–	–
1.8 nM	155 nM	6.2 nM	O=C(Nc1ccc(-c2nnco2)c(N2CCC(F)(F)CC2)c1)c1ccc(NS(=O)(=O)C2CC2)cc1N1CCC2(CC1)CC2 [Example 41, 4-(cyclopropanesulfonamido)-N-(3-(4,4-difluoropiperidin-1-yl)-4-(1,3,4-oxadiazol-2-yl)phenyl)-2-(6-azaspiro[2.5]octan-6-yl)benzamide]	–	–	–
0.15 nM	148 nM	3.7 nM	CCS(=O)(=O)Nc1ccc(C(=O)Nc2ccc(-c3ncn(C)n3)c(N3CC(F)(F)C3)c2)c(N2CCC3(CC2)CC3)c1 [Example 46, N-(3-(3,3-difluoroazetidin-1-y 1)-4-(1-methyl-1H-l,2,4-triazo 1-3-yl)phenyl)-4-(ethylsulfonamido)-2-(6-azaspiro[2.5]octan-6-yl)benzamide]	–	–	–
